The values below come from patent US20040254241A1, “Aryl sulfamate derivatives” (priority 2004, published 2004).

The target of this assay is T1, recombinant human estrone sulfatase (Homo sapiens, UniProt P08842).
T1 construct: made in house; host or cells: Chinese Hamster Ovary (CHO) cells
T1 sequence (P08842 22-583): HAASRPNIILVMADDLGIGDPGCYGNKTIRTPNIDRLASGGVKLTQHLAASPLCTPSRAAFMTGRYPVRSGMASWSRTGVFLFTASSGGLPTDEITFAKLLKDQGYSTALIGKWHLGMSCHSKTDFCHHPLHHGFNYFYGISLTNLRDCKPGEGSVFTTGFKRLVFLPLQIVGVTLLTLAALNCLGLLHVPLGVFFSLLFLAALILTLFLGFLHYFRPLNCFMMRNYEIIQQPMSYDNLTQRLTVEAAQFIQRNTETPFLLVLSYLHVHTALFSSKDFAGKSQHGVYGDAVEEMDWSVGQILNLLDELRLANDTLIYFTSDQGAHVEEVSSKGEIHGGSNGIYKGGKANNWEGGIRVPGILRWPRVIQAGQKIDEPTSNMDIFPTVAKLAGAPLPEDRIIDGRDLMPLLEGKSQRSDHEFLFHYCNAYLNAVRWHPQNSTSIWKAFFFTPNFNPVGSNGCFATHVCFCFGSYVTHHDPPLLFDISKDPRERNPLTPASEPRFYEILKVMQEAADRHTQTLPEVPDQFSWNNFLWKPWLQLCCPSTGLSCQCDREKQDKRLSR
In words: Test for inhibition of estrone sulfatase (steroid sulfatase). The class given is biochemical. Particulars: 4-methylumbelliferyl sulfate 0.3 mmol/L, phosphate buffer pH 7.5, 37° C., 1 hour; enzyme expressed in CHO cells, partially purified; read-out: Inhibitory activity against steroid sulfatase IC50. On the procedure:
Test Example 1: Test for Inhibition of Estrone Sulfatase (Steroid Sulfatase)
4-Methylumbelliferyl sulfate (final concentration 0.3 mmol/L), recombinant human estrone sulfatase (7.8 ng/well), and each solution of the test compound having each test concentrations (test compound was dissolved in 0.001 mL of DMSO) were added to a phosphate buffer (pH 7.5) (final volume 0.1 mL) containing 0.28 mol/L sucrose and 0.04 mol/L nicotinamide. An enzyme reaction was conducted at 37° C. for 1 hour. The human estrone sulfatase gene was introduced into Chinese Hamster Ovary (CHO) cells, and the recombinant human estrone sulfatase was expressed, then it was used after partial purification. After completing the enzyme reaction, 2 mol/L glycine-sodium hydroxide solution (pH 10.3) (0.13 mL) was added and stirred. Using a fluorescent plate reader (Cyto Fluor II), the fluorescent strength of the generated 4-methylumbelliferone was measured. The measurements were conducted in duplicate at the same time. The fluctuations within the assay were within 10%. An enzyme reaction without the presence of a test compound was conducted at the same time. The inhibitory activity against estrone sulfatase for each concentration of the test compounds was calculated using the following equation.
A: Amount of 4-methylumbelliferone when test compound is present
B: Amount of 4-methylumbelliferone when test compound is not present
Inhibitory activity against estrone sulfatase [formula]
The inhibitory activity against estrone sulfatase of the aryl sulfamate derivative can be expressed as the concentration (IC50) of aryl sulfamate derivative at which the estrone sulfatase activity in the presence of the aryl sulfamate derivative is half of that when no test compound is added.
As to `CCCCCCCCCNC(=O)/C(C#N)=C(\C)c1ccc(OS(N)(=O)=O)c(Br)c1` [Compound 56], the IC50 was found to be 41 nM.

With `CCCCCCCCCNC(=O)/C(C)=C/c1ccc(OS(N)(=O)=O)cc1` [Compound 3], the half-inhibitory concentration (IC50) was found to be 61 nM.

`CCCCCCCCCNC(=O)/C(C#N)=C(\C)c1ccc(OS(N)(=O)=O)cc1` [Compound 13]: the IC50 is 12 nM.

Turning to `CCCCCCCCCNC(=O)/C(Br)=C/c1ccc(OS(N)(=O)=O)cc1` [Compound 42], the IC50 came out at 54 nM.

With `CCCCCCCCCNC(=O)/C(I)=C/c1ccc(OS(N)(=O)=O)cc1` [Compound 43], the IC50 turned out to be 59 nM.

As for `CCCCCCCCCNC(=O)/C(C#N)=C(\C)c1ccc(OS(N)(=O)=O)c(Cl)c1` [Compound 55], the IC50 is 38 nM.

Turning to `CCCCCCCCCNC(=O)/C=C/c1ccc(OS(N)(=O)=O)cc1` [Compound 1], the half-inhibitory concentration (IC50) amounted to 73 nM.
